In patent publication US12559474B2, “Triazine derivatives having virus replication inhibitory activity and pharmaceutical composition comprising the same” (priority 2021, dated 2026):
Like-named read-outs stand apart in the source and are kept apart here.

What was measured:
SARS-CoV-2 3CL protease = SARS-CoV-2 3CL protease (Severe acute respiratory syndrome coronavirus 2, UniProt P0DTD1); assay: biochemical; settings: 50% SARS-CoV-2 3CL protease inhibitory concentration, read-out: IC50
SARS-CoV-2 = assay: microbe, parasite or virus in culture; format: cell-based; settings: Severe acute respiratory syndrome coronavirus 2, VeroE6/TMPRSS2, 72 h, 50% SARS-CoV-2 infected cell death inhibitory concentration, VeroE6/TMPRSS2 cells, 3 days culture

Compound	IC50 (SARS-CoV-2 3CL protease; given as class symbols) [nM]	EC50 (SARS-CoV-2; class symbols) [nM]	IC50 (SARS-CoV-2 3CL protease; RapidFire MS) [nM]	EC50 (SARS-CoV-2; CellTiter-Glo 2.0) [nM]
Cc1cncc(-n2c(=O)nc(Nc3cc4cn(C)nc4cc3Cl)n(Cc3cc(C#N)ccc3C(F)(F)F)c2=O)c1 [II-0076]	< 100	< 1000		
Cc1cncc(-n2c(=O)nc(Nc3cc4c(cc3F)nc(C)n4C)n(Cc3cc(F)c(F)c(F)c3)c2=O)c1 [II-0360]	< 100	1000 to 10000		
Cc1nc2cc(Cl)c(Nc3nc(=O)n(Cc4ncn(C)n4)c(=O)n3Cc3cc(F)c(F)cc3F)cc2s1 [II-0287]	< 100	1000 to 10000		
COc1ccc(Nc2nc(=O)n(Cc3cc4sccc4[nH]c3=O)c(=O)n2Cc2cc(F)c(F)c(F)c2)cc1 [II-0342]	< 100	1000 to 10000		
O=c1nc(Nc2cc3cn(CCO)nc3cc2Cl)n(Cc2cc(F)c(F)cc2F)c(=O)n1Cc1ccccn1 [II-0249]	< 100	1000 to 10000		
Cc1cncc(-n2c(=O)nc(Nc3ccc4nn(C)c(C)c4c3)n(Cc3ccc(F)c(C#N)c3)c2=O)c1 [II-0264]	< 100	1000 to 10000		
CNc1nc2cc(Cl)c(Nc3nc(=O)n(Cc4ncn(C)n4)c(=O)n3Cc3cc(F)c(F)c(F)c3)cc2o1 [II-0061]	< 100	1000 to 10000		
Cc1cncc(-n2c(=O)nc(Nc3cc4cn(C)nc4cc3Cl)n(Cc3cc(C#N)ccc3N)c2=O)c1 [II-0585]	< 100	1000 to 10000		
O=c1[nH]cccc1Cn1c(=O)nc(NC2CCS(=O)(=O)CC2)n(Cc2cc(F)c(F)c(F)c2)c1=O [Compound I-0038]	1000 to 10000	< 1000	1300	
CNc1nc2cc(Cl)c(Nc3nc(=O)n(Cc4ncccn4)c(=O)n3Cc3cc(Cl)c(F)cc3F)cc2s1 [II-0239]	< 100	1000 to 10000		
COc1ccc(Nc2nc(=O)n(-c3cnnc(C)c3)c(=O)n2Cc2cc(F)c(F)c(F)c2)cc1 [II-0394]			3900	44900
COc1ccc(Nc2nc(=O)n(Cc3ccc[nH]c3=O)c(=O)n2Cc2ccc(F)c(Br)c2)cc1 [Compound I-0196]	< 100	1000 to 10000		
N#CC1(Cn2cc3cc(Nc4nc(=O)n(Cc5ccc[nH]c5=O)c(=O)n4Cc4cc(F)c(F)c(F)c4)c(Cl)cc3n2)CC1 [II-0412]	< 100	1000 to 10000		
CNc1nc2cc(Cl)c(Nc3nc(=O)n(-c4cncc(C)c4)c(=O)n3Cc3cc(Cl)c(F)cn3)cc2s1 [II-0589]	< 100	1000 to 10000		
N#Cc1cc(Cn2c(Nc3ccc4c(c3)CCO4)nc(=O)n(-c3cncc(Cl)c3)c2=O)ccc1F [Compound I-0348]	< 100	< 1000		
Cc1cncc(-n2c(=O)nc(Nc3cc4cn(CC(F)F)nc4cc3Cl)n(Cc3cc(F)c(F)cc3F)c2=O)c1 [II-0574]			9.2	200
CCNc1nc2cc(Cl)c(Nc3nc(=O)n(-c4cncc(C)c4)c(=O)n3Cc3ccc(F)c(C#N)c3)cc2s1 [II-0336]	< 100	< 1000		
Cc1cncc(-n2c(=O)nc(Nc3ccc4nn(C(F)F)cc4c3)n(Cc3ccc(F)c(C#N)c3)c2=O)c1 [II-0320]	< 100	< 1000		
Cc1cncc(-n2c(=O)nc(Nc3cc4cn(C)nc4cc3Cl)n(Cc3cc(Cl)cc(Cl)c3)c2=O)c1 [II-0205]	< 100	1000 to 10000		
Cc1cncc(-n2c(=O)nc(Nc3cc4c(cc3Cl)nc(N(C)C)n4C)n(Cc3cc(F)c(F)c(F)c3)c2=O)c1 [II-0478]	< 100	1000 to 10000		
COc1ccc(Nc2nc(=O)n(-c3cncc(C)c3)c(=O)n2Cc2ccc(F)c(C#N)c2)c(Cl)c1 [II-0165]	< 100	< 1000		
CNc1nc2cc(Cl)c(Nc3nc(=O)n(-c4cncc(Cl)c4)c(=O)n3Cc3ccc(F)c(C#N)c3)cc2o1 [II-0516]	< 100	1000 to 10000		
Cn1cc2cc(Nc3nc(=O)n(-c4cncc(Cl)c4)c(=O)n3Cc3cc(F)c(F)c(C#N)c3)ccc2n1 [II-0284]			9.2	184
Cc1cncc(-n2c(=O)nc(Nc3cc4cn(C[C@H](C)O)nc4cc3Cl)n(Cc3cc(F)c(F)cc3F)c2=O)c1 [II-0100]	< 100	< 1000		
Cn1cnc(Cn2c(=O)nc(Nc3cc4cn(CC(F)F)nc4cc3Cl)n(Cc3cc(Cl)c(F)cc3F)c2=O)n1 [II-0569]			4.2	419
Cc1cc(F)c(C#N)cc1Cn1c(Nc2cc3cn(C)nc3cc2Cl)nc(=O)n(-c2cncc(N)c2)c1=O [II-0380]	< 100	1000 to 10000		
O=c1[nH]cccc1Cn1c(=O)nc(NCC2CCCC2)n(Cc2cc(F)c(F)c(F)c2)c1=O [II-0371]			540	13300
Cn1cc2cc(Nc3nc(=O)n(Cc4ncccn4)c(=O)n3Cc3cc(Cl)c(F)cc3F)c(Cl)cc2n1 [II-0242]	< 100	< 1000		
Cc1cncc(-n2c(=O)nc(Nc3cc4cn(C)nc4cc3Cl)n(Cc3cc(C#N)cnc3C)c2=O)c1 [II-0537]	< 100	1000 to 10000		
